{"source": "patent US11976083B2", "about": "“Inhibitors of peptidylarginine deiminases” (Gilead Sciences, Inc., priority 2020, dated 2024)", "data": [{"target": "T1, human PAD4 (Homo sapiens, UniProt Q9UM07)", "T1 construct": "human PAD4 (NM_012387), A2-P663, was PCR amplified; His-SUMO (N, cleaved yes); made in house; host or cells: E. coli BL21(DE3)", "T1 sequence (Q9UM07 2-663)": "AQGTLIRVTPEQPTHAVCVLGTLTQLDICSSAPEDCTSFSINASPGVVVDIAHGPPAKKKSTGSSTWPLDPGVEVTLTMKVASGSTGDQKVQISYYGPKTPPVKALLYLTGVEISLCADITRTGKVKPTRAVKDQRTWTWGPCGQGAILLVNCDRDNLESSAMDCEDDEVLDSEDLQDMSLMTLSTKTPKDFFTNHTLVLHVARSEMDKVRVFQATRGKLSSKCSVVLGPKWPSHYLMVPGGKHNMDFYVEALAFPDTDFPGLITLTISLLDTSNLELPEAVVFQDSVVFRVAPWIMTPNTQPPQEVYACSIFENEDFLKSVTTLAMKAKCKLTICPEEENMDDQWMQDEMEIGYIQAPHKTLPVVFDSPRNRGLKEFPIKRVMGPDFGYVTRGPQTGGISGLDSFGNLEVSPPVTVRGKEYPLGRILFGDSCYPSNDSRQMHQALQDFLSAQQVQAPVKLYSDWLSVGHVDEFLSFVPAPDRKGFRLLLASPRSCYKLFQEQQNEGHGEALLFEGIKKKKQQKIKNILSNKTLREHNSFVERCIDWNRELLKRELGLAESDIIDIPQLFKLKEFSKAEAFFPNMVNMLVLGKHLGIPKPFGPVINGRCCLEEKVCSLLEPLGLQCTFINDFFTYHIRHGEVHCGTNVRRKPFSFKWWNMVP", "assay": "In vitro PAD4 BAEE biochemical assay", "settings": "BAEE substrate 3 mM, 5 nM PAD4, 2 mM calcium chloride; geometric mean of multiple experiments", "how_it_was_run": "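Ammonia produced by BAEE deimination (3 mM substrate, 2 h, 25 °C) was read as fluorescent isoindole after o-phthalaldehyde/DTT derivatization, ex 405 nm/em 535 nm. Human PAD4 at 5 nM final, 2 mM calcium, pH 7.6 MOPS; compound preincubated 30 min. IC50s, normalized to BB-Cl-Amidine and DMSO controls, were geometric-mean averaged.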", "units": {"IC50": "nM"}, "values": [{"compound": "CO[C@@H]1CCN(C(=O)c2cc(F)c3c(c2)nc(-c2cc4ccc5nc4n2CCCCCc2nccnc2C(=O)N[C@@H]5C)n3C)C[C@@H]1N", "note": "[Example 513, (2~{R})-17-[5-[(3~ {S},4~{R})-3-amino-4-methoxy-piperidine-1-carbonyl]-7-fluoro-1-methyl-benzimidazol-2-yl]-2-methyl-3,6,9,16,22-pentazatetracyclo[14.5.2.0^ {5,10}.0^{19,23}] tricosa-1(22),5(10),6,8,17,19 (23),20-heptaen-4-one]", "IC50": 161}, {"compound": "COc1cc(C(=O)N(C)[C@H]2CNCC[C@@H]2F)cc2nc(-c3cc4ccc5nc4n3CCCCCCC(C)(C)C(=O)N[C@@H]5C)n(C)c12", "note": "[Example 514, ~{N}-[(3~{S},4~{S})-4-fluoro-3-piperidyl]-7-methoxy-~{N},1-dimethyl-2-[(11~{R})-8,8,11-trimethyl-9-oxo-1,10,19-triazatricyclo[10.5.2.0^ {15,18}]nonadeca-12(19),13,15(18),16-tetraen-17-yl]benzimidazole-5-carboxamide]", "IC50": 371}, {"compound": "C[C@H]1NC(=O)C(C)(C)CCCCCn2c(-c3nc4cc(C(=O)N[C@H]5CNCC[C@@H]5F)c(F)cc4n3C3CC3)cc3ccc1nc32", "note": "[Example 515, 1-cyclopropyl-6-fluoro- ~{N}-[(3~{S},4~{S})-4-fluoro-3-piperidyl]-2-[(10~{R})-7,7,10-trimethyl-8-oxo-1,9,18-triazatricyclo [9.5.2.0^{14,17}]octadeca-11(18),12,14(17),15-tetraen-16-yl]benzimidazole-5-carboxamide]", "IC50": 74}, {"compound": "COc1cc(C(=O)N[C@H]2CNCC[C@@H]2F)cc2nc(-c3cc4ccc5nc4n3CC/C=C\\C[C@H]3C[C@H]3C(=O)N[C@@H]5C)n(C)c12", "note": "[Example 516, ~{N}-[(3~{S},4~ {S})-4-fluoro-3-piperidyl]-7-methoxy-1-methyl-2-[(2~{R},5~{R},7~ {S},9~{Z})-2-methyl-4-oxo-3,13,19-triazatetracyclo[11.5.2.0^ {5,7}.0^{16,20}]icosa-1(19),9,14,16(20),17-pentaen-14-yl]benzimidazole-5-carboxamide]", "IC50": 48}, {"compound": "COc1cc(C(=O)N2CC[C@@H](OC)[C@@H](N)C2)cc2nc(-c3cc4ccc5nc4n3CC/C=C\\C[C@H]3C[C@H]3C(=O)N[C@@H]5C)n(C)c12", "note": "[Example 517, (2~{R},5~{R},7~ {S},9~{Z})-14-[5-[(3~{S},4~{R})-3-amino-4-methoxy-piperidine-1-carbonyl]-7-methoxy-1-methyl-benzimidazol-2-yl]-2-methyl-3,13,19-triazatetracyclo[11.5.2.0^ {5,7}.0^{16,20}] icosa-1(19),9,14,16(20), 17-pentaen-4-one]", "IC50": 128}, {"compound": "COc1cc(C(=O)N[C@H]2CNCC[C@@H]2F)cc2nc(-c3cc4ccc5nc4n3CCCCC[C@H]3C[C@H]3C(=O)N[C@@H]5C)n(C)c12", "note": "[Example 518]", "IC50": 49}, {"compound": "C[C@H]1NC(=O)[C@@H]2C[C@@H]2C/C=C\\CCn2c(-c3nc4cc(C(=O)N[C@H]5CNCC[C@@H]5F)c(F)cc4n3C3CC3)cc3ccc1nc32", "note": "[Example 519, 1-cyclopropyl-6-fluoro-~{N}-[(3~{S},4~{S})-4-fluoro-3-piperidyl]-2-[(2~{R}, 5~{R},7~{S},9~{Z})-2-methyl-4-oxo-3,13,19-triazatetracyclo[11.5.2.0^ {5,7}.0^{16,20}]icosa-1 (19),9,14,16(20),17-pentaen-14-yl]benzimidazole-5-carboxamide]", "IC50": 44}, {"compound": "C[C@H]1NC(=O)[C@@H]2C[C@@H]2CCCCCn2c(-c3nc4cc(C(=O)N[C@H]5CNCC[C@@H]5F)c(F)cc4n3C3CC3)cc3ccc1nc32", "note": "[Example 520, 1-cyclopropyl-6-fluoro-~ {N}-[(3~{S},4~{S})-4-fluoro-3-piperidyl]-2-[(2~{R},5~{R},7~{S})-2-methyl-4-oxo-3,13,19-triazatetracyclo[11.5.2.0^ {5,7}.0^{16,20}]icosa-1(19),14,16(20),17-tetraen-14-yl]benzimidazole-5-carboxamide]", "IC50": 35}, {"compound": "C[C@H]1NC(=O)[C@@H]2C[C@@H]2C/C=C\\CCn2c(-c3nc4cc(C(=O)N[C@H]5CNCC[C@@H]5F)c(F)cc4n3C)cc3ccc1nc32", "note": "[Example 521, 6-fluoro-~{N}-[(3~ {S},4~{S})-4-fluoro-3-piperidyl]-1-methyl-2-[(2~{R},5~{R},7~ {S},9~{Z})-2-methyl-4-oxo-3,13,19-triazatetracyclo[11.5.2.0^ {5,7}.0^{16,20}]icosa-1(19),9,14,16(20), 17-pentaen-14-yl] benzimidazole-5-carboxamide]", "IC50": 76}, {"compound": "C[C@H]1NC(=O)[C@@H]2C[C@@H]2CCCCCn2c(-c3nc4cc(C(=O)N[C@H]5CNCC[C@@H]5F)c(F)cc4n3C)cc3ccc1nc32", "note": "[Example 522, 6-fluoro-~{N}-[(3~ {S},4~{S})-4-fluoro-3-piperidyl]-1-methyl-2-[(2~{R},5~{R},7~{S})-2-methyl-4-oxo-3,13,19-triazatetracyclo[11.5.2.0^ {5,7).0^{16,20}]icosa-1(19),14,16(20), 17-tetraen-14-yl] benzimidazole-5-carboxamide]", "IC50": 40}, {"compound": "COc1cc(C(=O)N[C@H]2CNCC[C@@H]2F)cc2nc(-c3cc4ccc5nc4n3CCCCC[C@@H]3C[C@@H]3C(=O)N[C@@H]5C)n(C)c12", "note": "[Example 523, ~{N}-[(3~{S},4~ {S})-4-fluoro-3-piperidyl]-7-methoxy-1-methyl-2-[(2~{R},5~ {S},7~{R})-2-methyl-4-oxo-3,13,19-triazatetracyclo [11.5.2.0^{5,7}.0^{16,20}]icosa-1(19),14,16(20), 17-tetraen-14-yl] benzimidazole-5-carboxamide]", "IC50": 205}, {"compound": "COc1cc(C(=O)N2CC[C@@H](OC)[C@@H](N)C2)cc2nc(-c3cc4ccc5nc4n3CCCCC[C@@H]3C[C@@H]3C(=O)N[C@@H]5C)n(C)c12", "note": "[Example 524, (2~{R},5~{S},7~{R})-14-[5-[(3~{S},4~{R})-3-amino-4-methoxy-piperidine-1-carbonyl]-7-methoxy-1-methyl-benzimidazol-2-yl]-2-methyl-3,13,19-triazatetracyclo[11.5.2.0^ {5,7}.0^{16,20}]icosa-1(19),14,16(20),17-tetraen-4-one]", "IC50": 388}, {"compound": "COc1cc(C(=O)N2CC[C@@H](OC)[C@@H](N)C2)cc2nc(-c3cc4ccc5nc4n3CCCCC[C@H]3C[C@H]3C(=O)N[C@@H]5C)n(C)c12", "note": "[Example 525, (2~{R},5~{R},7~ {S})-14-[5-[(3~{S},4~{R})-3-amino-4-methoxy-piperidine-1-carbonyl]-7-methoxy-1-methyl-benzimidazol-2-yl]-2-methyl-3,13,19-triazatetracyclo [11.5.2.0^{5,7}.0^{16,20}] icosa-1(19),14,16(20), 17-tetraen-4-one]", "IC50": 78}, {"compound": "COc1cc(C(=O)N[C@H]2CNC[C@H](O)C2)cc2nc(-c3cc4ccc5nc4n3CCCCCCC(C)(C)C(=O)N[C@@H]5C)n(C)c12", "note": "[Example 526, ~{N}-[(3~{R},5~{R})-5-hydroxy-3-piperidyl]-7-methoxy-1-methyl-2-[(11~{R})-8,8,11-trimethyl-9-oxo-1,10,19-triazatricyclo [10.5.2.0^{15,18}]nonadeca-12(19),13,15(18),16-tetraen-17-yl]benzimidazole-5-carboxamide]", "IC50": 65}]}]}
